Reference: ChEMBL document CHEMBL1944514, “Fluorescence detection of single nucleotide polymorphisms using nucleic acid probe containing tricyclic base-linked acyclonucleoside” (Bioorg Med Chem Lett, 2012)
Activity calls are given as the source filed them. The rule behind the calls is not given here.

Experiments:
Type in all cases: nucleic-acid assay
Nucleic Acid [1] = test: Binding affinity to 3'-r(CUUCCAGUUACAUAGAGA)-5' RNA assessed as fluorescence quenching by spectrophotometry
Nucleic Acid [2] = test: Binding affinity to 3'-r(CUUCCAGUUGCAUAGAGA)-5' RNA assessed as fluorescence quenching by spectrophotometry
Nucleic Acid [3] = test: Binding affinity to 3'-r(CUUCCAGUUCCAUAGAGA)-5' RNA assessed as fluorescence quenching by spectrophotometry
Nucleic Acid [4] = test: Binding affinity to 3'-r(CUUCCAGUUUCAUAGAGA)-5' RNA assessed as fluorescence quenching by spectrophotometry

SMILES | Activity (Nucleic Acid [1]) | Activity (Nucleic Acid [2]) | Activity (Nucleic Acid [3]) | Activity (Nucleic Acid [4])
Cc1cn([C@H]2C[C@H](OP(=O)(O)OC[C@H]3O[C@@H](n4ccc(N)nc4=O)C[C@@H]3OP(=O)(O)OC[C@H]3O[C@@H](n4cnc5c(N)ncnc54)C[C@@H]3OP(=O)(O)OC[C@H]3O[C@@H](n4cnc5c(N)ncnc54)C[C@@H]3OP(=O)(O)OC[C@H]3O[C@@H](n4ccc(N)nc4=O)C[C@@H]3OP(=O)(O)OC[C@H](Cn3cnc4cc5c(N)ncnc5nc43)OP(=O)(O)OC[C@H]3O[C@@H](n4cnc5c(=O)[nH]c(N)nc54)C[C@@H]3OP(=O)(O)CC[C@H]3O[C@@H](n4cc(C)c(=O)[nH]c4=O)C[C@@H]3OP(=O)(O)OC[C@H]3O[C@@H](n4cnc5c(N)ncnc54)C[C@@H]3OP(=O)(O)OC[C@H]3O[C@@H](n4cc(C)c(=O)[nH]c4=O)C[C@@H]3OP(=O)(O)OC[C@H]3O[C@@H](n4ccc(N)nc4=O)C[C@@H]3OP(=O)(O)OC[C@H]3O[C@@H](n4cc(C)c(=O)[nH]c4=O)C[C@@H]3OP(=O)(O)OC[C@H]3O[C@@H](n4ccc(N)nc4=O)C[C@@H]3OP(=O)(O)OC[C@H]3O[C@@H](n4cc(C)c(=O)[nH]c4=O)C[C@@H]3O)[C@@H](COP(=O)(O)O[C@H]3C[C@H](n4cnc5c(=O)[nH]c(N)nc54)O[C@@H]3COP(=O)(O)O[C@H]3C[C@H](n4cnc5c(=O)[nH]c(N)nc54)O[C@@H]3COP(=O)(O)O[C@H]3C[C@H](n4cnc5c(N)ncnc54)O[C@@H]3COP(=O)(O)O[C@H]3C[C@H](n4cnc5c(N)ncnc54)O[C@@H]3COP(=O)(O)O[C@H]3C[C@H](n4cnc5c(=O)[nH]c(N)nc54)O[C@@H]3CO)O2)c(=O)nc1N | Active | Active | Active | Active
Cc1cn([C@H]2C[C@H](OP(=O)(O)OC[C@H]3O[C@@H](n4ccc(N)nc4=O)C[C@@H]3OP(=O)(O)OC[C@H]3O[C@@H](n4cnc5c(N)ncnc54)C[C@@H]3OP(=O)(O)OC[C@H]3O[C@@H](n4cnc5c(N)ncnc54)C[C@@H]3OP(=O)(O)OC[C@H]3O[C@@H](n4cc(C)c(=O)[nH]c4=O)C[C@@H]3OP(=O)(O)OC[C@H](Cn3cnc4cc5c(N)ncnc5nc43)OP(=O)(O)OC[C@H]3O[C@@H](n4cnc5c(=O)[nH]c(N)nc54)C[C@@H]3OP(=O)(O)CC[C@H]3O[C@@H](n4cc(C)c(=O)[nH]c4=O)C[C@@H]3OP(=O)(O)OC[C@H]3O[C@@H](n4cnc5c(N)ncnc54)C[C@@H]3OP(=O)(O)OC[C@H]3O[C@@H](n4cc(C)c(=O)[nH]c4=O)C[C@@H]3OP(=O)(O)OC[C@H]3O[C@@H](n4ccc(N)nc4=O)C[C@@H]3OP(=O)(O)OC[C@H]3O[C@@H](n4cc(C)c(=O)[nH]c4=O)C[C@@H]3OP(=O)(O)OC[C@H]3O[C@@H](n4ccc(N)nc4=O)C[C@@H]3OP(=O)(O)OC[C@H]3O[C@@H](n4cc(C)c(=O)[nH]c4=O)C[C@@H]3O)[C@@H](COP(=O)(O)O[C@H]3C[C@H](n4cnc5c(=O)[nH]c(N)nc54)O[C@@H]3COP(=O)(O)O[C@H]3C[C@H](n4cnc5c(=O)[nH]c(N)nc54)O[C@@H]3COP(=O)(O)O[C@H]3C[C@H](n4cnc5c(N)ncnc54)O[C@@H]3COP(=O)(O)O[C@H]3C[C@H](n4cnc5c(N)ncnc54)O[C@@H]3COP(=O)(O)O[C@H]3C[C@H](n4cnc5c(=O)[nH]c(N)nc54)O[C@@H]3CO)O2)c(=O)nc1N | inactive | Active | Active | Active
Cc1cn([C@H]2C[C@H](OP(=O)(O)OC[C@H]3O[C@@H](n4ccc(N)nc4=O)C[C@@H]3OP(=O)(O)OC[C@H]3O[C@@H](n4cnc5c(N)ncnc54)C[C@@H]3OP(=O)(O)OC[C@H]3O[C@@H](n4cnc5c(N)ncnc54)C[C@@H]3OP(=O)(O)OC[C@H](Cn3cnc4cc5c(N)ncnc5nc43)OP(=O)(O)OC[C@H]3O[C@@H](n4ccc(N)nc4=O)C[C@@H]3OP(=O)(O)OC[C@H]3O[C@@H](n4cnc5c(=O)[nH]c(N)nc54)C[C@@H]3OP(=O)(O)CC[C@H]3O[C@@H](n4cc(C)c(=O)[nH]c4=O)C[C@@H]3OP(=O)(O)OC[C@H]3O[C@@H](n4cnc5c(N)ncnc54)C[C@@H]3OP(=O)(O)OC[C@H]3O[C@@H](n4cc(C)c(=O)[nH]c4=O)C[C@@H]3OP(=O)(O)OC[C@H]3O[C@@H](n4ccc(N)nc4=O)C[C@@H]3OP(=O)(O)OC[C@H]3O[C@@H](n4cc(C)c(=O)[nH]c4=O)C[C@@H]3OP(=O)(O)OC[C@H]3O[C@@H](n4ccc(N)nc4=O)C[C@@H]3OP(=O)(O)OC[C@H]3O[C@@H](n4cc(C)c(=O)[nH]c4=O)C[C@@H]3O)[C@@H](COP(=O)(O)O[C@H]3C[C@H](n4cnc5c(=O)[nH]c(N)nc54)O[C@@H]3COP(=O)(O)O[C@H]3C[C@H](n4cnc5c(=O)[nH]c(N)nc54)O[C@@H]3COP(=O)(O)O[C@H]3C[C@H](n4cnc5c(N)ncnc54)O[C@@H]3COP(=O)(O)O[C@H]3C[C@H](n4cnc5c(N)ncnc54)O[C@@H]3COP(=O)(O)O[C@H]3C[C@H](n4cnc5c(=O)[nH]c(N)nc54)O[C@@H]3CO)O2)c(=O)nc1N | Active | inactive | Active | Active

Other lines, results leading:

Activity (Nucleic Acid [1]) | Activity (Nucleic Acid [2]) | Activity (Nucleic Acid [3]) | Activity (Nucleic Acid [4]) | SMILES
Active | Active | inactive | Active | Cc1cn([C@H]2C[C@H](OP(=O)(O)OC[C@H]3O[C@@H](n4ccc(N)nc4=O)C[C@@H]3OP(=O)(O)OC[C@H]3O[C@@H](n4cnc5c(N)ncnc54)C[C@@H]3OP(=O)(O)OC[C@H]3O[C@@H](n4cnc5c(N)ncnc54)C[C@@H]3OP(=O)(O)OC[C@H](Cn3cnc4cc5c(N)ncnc5nc43)OP(=O)(O)OC[C@H]3O[C@@H](n4cnc5c(=O)[nH]c(N)nc54)C[C@@H]3OP(=O)(O)OC[C@H]3O[C@@H](n4cnc5c(=O)[nH]c(N)nc54)C[C@@H]3OP(=O)(O)CC[C@H]3O[C@@H](n4cc(C)c(=O)[nH]c4=O)C[C@@H]3OP(=O)(O)OC[C@H]3O[C@@H](n4cnc5c(N)ncnc54)C[C@@H]3OP(=O)(O)OC[C@H]3O[C@@H](n4cc(C)c(=O)[nH]c4=O)C[C@@H]3OP(=O)(O)OC[C@H]3O[C@@H](n4ccc(N)nc4=O)C[C@@H]3OP(=O)(O)OC[C@H]3O[C@@H](n4cc(C)c(=O)[nH]c4=O)C[C@@H]3OP(=O)(O)OC[C@H]3O[C@@H](n4ccc(N)nc4=O)C[C@@H]3OP(=O)(O)OC[C@H]3O[C@@H](n4cc(C)c(=O)[nH]c4=O)C[C@@H]3O)[C@@H](COP(=O)(O)O[C@H]3C[C@H](n4cnc5c(=O)[nH]c(N)nc54)O[C@@H]3COP(=O)(O)O[C@H]3C[C@H](n4cnc5c(=O)[nH]c(N)nc54)O[C@@H]3COP(=O)(O)O[C@H]3C[C@H](n4cnc5c(N)ncnc54)O[C@@H]3COP(=O)(O)O[C@H]3C[C@H](n4cnc5c(N)ncnc54)O[C@@H]3COP(=O)(O)O[C@H]3C[C@H](n4cnc5c(=O)[nH]c(N)nc54)O[C@@H]3CO)O2)c(=O)nc1N
Active | Active | Active | inactive | Cc1cn([C@H]2C[C@H](OP(=O)(O)OC[C@H]3O[C@@H](n4ccc(N)nc4=O)C[C@@H]3OP(=O)(O)OC[C@H]3O[C@@H](n4cnc5c(N)ncnc54)C[C@@H]3OP(=O)(O)OC[C@H]3O[C@@H](n4cnc5c(N)ncnc54)C[C@@H]3OP(=O)(O)OC[C@H](Cn3cnc4cc5c(N)ncnc5nc43)OP(=O)(O)OC[C@H]3O[C@@H](n4cnc5c(N)ncnc54)C[C@@H]3OP(=O)(O)OC[C@H]3O[C@@H](n4cnc5c(=O)[nH]c(N)nc54)C[C@@H]3OP(=O)(O)CC[C@H]3O[C@@H](n4cc(C)c(=O)[nH]c4=O)C[C@@H]3OP(=O)(O)OC[C@H]3O[C@@H](n4cnc5c(N)ncnc54)C[C@@H]3OP(=O)(O)OC[C@H]3O[C@@H](n4cc(C)c(=O)[nH]c4=O)C[C@@H]3OP(=O)(O)OC[C@H]3O[C@@H](n4ccc(N)nc4=O)C[C@@H]3OP(=O)(O)OC[C@H]3O[C@@H](n4cc(C)c(=O)[nH]c4=O)C[C@@H]3OP(=O)(O)OC[C@H]3O[C@@H](n4ccc(N)nc4=O)C[C@@H]3OP(=O)(O)OC[C@H]3O[C@@H](n4cc(C)c(=O)[nH]c4=O)C[C@@H]3O)[C@@H](COP(=O)(O)O[C@H]3C[C@H](n4cnc5c(=O)[nH]c(N)nc54)O[C@@H]3COP(=O)(O)O[C@H]3C[C@H](n4cnc5c(=O)[nH]c(N)nc54)O[C@@H]3COP(=O)(O)O[C@H]3C[C@H](n4cnc5c(N)ncnc54)O[C@@H]3COP(=O)(O)O[C@H]3C[C@H](n4cnc5c(N)ncnc54)O[C@@H]3COP(=O)(O)O[C@H]3C[C@H](n4cnc5c(=O)[nH]c(N)nc54)O[C@@H]3CO)O2)c(=O)nc1N
Active | Active | inactive | Active | Cc1cn([C@H]2C[C@H](OP(=O)(O)OC[C@H]3O[C@@H](n4ccc(N)nc4=O)C[C@@H]3OP(=O)(O)OC[C@H]3O[C@@H](n4cnc5c(N)ncnc54)C[C@@H]3OP(=O)(O)OC[C@H]3O[C@@H](n4cnc5c(N)ncnc54)C[C@@H]3OP(=O)(O)OC[C@H]3O[C@@H](n4cnc5c(=O)[nH]c(N)nc54)C[C@@H]3OP(=O)(O)OC[C@H](Cn3cnc4cc5c(N)ncnc5nc43)OP(=O)(O)OC[C@H]3O[C@@H](n4cnc5c(=O)[nH]c(N)nc54)C[C@@H]3OP(=O)(O)CC[C@H]3O[C@@H](n4cc(C)c(=O)[nH]c4=O)C[C@@H]3OP(=O)(O)OC[C@H]3O[C@@H](n4cnc5c(N)ncnc54)C[C@@H]3OP(=O)(O)OC[C@H]3O[C@@H](n4cc(C)c(=O)[nH]c4=O)C[C@@H]3OP(=O)(O)OC[C@H]3O[C@@H](n4ccc(N)nc4=O)C[C@@H]3OP(=O)(O)OC[C@H]3O[C@@H](n4cc(C)c(=O)[nH]c4=O)C[C@@H]3OP(=O)(O)OC[C@H]3O[C@@H](n4ccc(N)nc4=O)C[C@@H]3OP(=O)(O)OC[C@H]3O[C@@H](n4cc(C)c(=O)[nH]c4=O)C[C@@H]3O)[C@@H](COP(=O)(O)O[C@H]3C[C@H](n4cnc5c(=O)[nH]c(N)nc54)O[C@@H]3COP(=O)(O)O[C@H]3C[C@H](n4cnc5c(=O)[nH]c(N)nc54)O[C@@H]3COP(=O)(O)O[C@H]3C[C@H](n4cnc5c(N)ncnc54)O[C@@H]3COP(=O)(O)O[C@H]3C[C@H](n4cnc5c(N)ncnc54)O[C@@H]3COP(=O)(O)O[C@H]3C[C@H](n4cnc5c(=O)[nH]c(N)nc54)O[C@@H]3CO)O2)c(=O)nc1N
